The results in this text go back to patent US20240343707A1, “SUBSTITUTED PHENYL ETHYNYL PYRIMIDINES AS POTENT INHIBITORS OF ALPHAVIRUSES” (Southern Research Institute, priority 2023, published 2024).

Bounds are passed on as bounds.

Holding throughout (assay type): cell-based
Series [1] can be described thus: in vitro. To be noted: human.
The subject of series [2] is CHIKV. As to the kind of experiment: CHIKV virus titer reduction (VTR) assay in NHDF cells. To be noted: Chikungunya virus; for EC90: read-out: CHIKV EC90 (μM); for log reduction at 10 µM: read-out: CHIKV VTR (logs).
For series [3], the system named is CHIKV. Briefly: microbe, parasite or virus in culture. As to conditions: Chikungunya virus, read-out: CHIK EC50 (μM).
Series [4] relates to VEEV (TC-83). As to the kind of experiment: microbe, parasite or virus in culture. As to conditions: Venezuelan equine encephalitis virus, read-out: VEEV EC50 (μM).
Series [5] relates to VEEV. As to the kind of experiment: microbe, parasite or virus in culture. As to conditions: Venezuelan equine encephalitis virus, NHDF; for EC90: read-out: VEEV EC90 (μM); for log reduction at 10 µM: read-out: VEEV VTR (logs).

By CC50 is commonly meant the concentration that lowers cell viability or growth by half. By EC90 is commonly meant the concentration needed for an effect of 90%. The term EC50 denotes the concentration at which the effect is half-maximal. Regarding `CC(C)(C#N)c1ccc(NC(=O)c2cccc(C#Cc3ncccn3)c2)cc1` [Compound 20, N-[4-(1-cyano-1-methyl-ethyl)phenyl]-3-(2-pyrimidin-2-ylethynyl)benzamide], the CC50 in series [1] was 17.8 µM. Besides, the EC90 in series [2] came out at 0.07 µM; in series [5], 0.06 µM. The log reduction at 10 µM in series [2] was found to be 10; in series [5], 8.08. In addition, the EC50 stood at 0.27 µM in series [3] and 0.34 µM in series [4].

The compound `O=C(Nc1cccc(C#Cc2ncccn2)c1)C12CC3CC(CC(C3)C1)C2` [Compound 11, N-[3-(2-pyrimidin-2-ylethynyl)phenyl]adamantane-1-carboxamide] had a CC50 in series [1] greater than 40 µM. The EC90 in series [2] came out at 20.3 µM; in series [5] it was 20.1 µM. For the same compound, the log reduction at 10 µM in series [2] turned out to be 0.3; in series [5], 1.02. The EC50 in series [3] and in series [4] was greater than 40 µM in each case.
